Laboratory results published in patent US9023789B2, “Amylin analogs and pharmaceutical compositions thereof” (Novo Nordisk A/S, priority 2012, dated 2015).
Numbered stars: 1 amine (or outer) side, 2 acyl side, 3 side chain; on linkers, the order of the positions; unused ones are H or OH. Bridge positions count the residues as written; N and C are the ends. Side chains are listed from the residue outwards. Peptide text beside a SMILES is read from it. * marks the point of attachment. C20 diacid = O=C(O)CCCCCCCCCCCCCCCCCCC(=O)*; γGlu = O=C(O)[C@H](CCC(=O)[*:2])N[*:1]

Assays:
Sprague Dawley (SD) rats = assay: ASSAY (I) efficacy testing on appetite (food intake) using an ad libitum fed rat model; type: in vivo; settings: rat
In short: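 Ad libitum fed SD rats (200–250 g) were housed singly on a reversed light/dark cycle and given one 0.01–3 mg/kg dose ip, po or sc just before lights-off, with 5–8 per dose group plus vehicle controls. Food intake was recorded hourly for 7 h, then at 24 h and sometimes 48 h; Grubbs outliers were excluded.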

[1] = biological target: T1, rat amylin receptor (rat calcitonin receptor + rat RAMP 3) (Rattus norvegicus, UniProt P32214+Q9JJ73); assay: ASSAY (VI) binding to the rat amylin receptor; settings: for IC50: binding to rat amylin receptor, read-out: rAmylin-R bind IC50
T1 construct: expressed in transfected cells; host or cells: BHK tk'ts 13 (transient, FuGENE 6), membranes
T1 sequence (P32214 25-479 isoform P32214-2 limits assumed): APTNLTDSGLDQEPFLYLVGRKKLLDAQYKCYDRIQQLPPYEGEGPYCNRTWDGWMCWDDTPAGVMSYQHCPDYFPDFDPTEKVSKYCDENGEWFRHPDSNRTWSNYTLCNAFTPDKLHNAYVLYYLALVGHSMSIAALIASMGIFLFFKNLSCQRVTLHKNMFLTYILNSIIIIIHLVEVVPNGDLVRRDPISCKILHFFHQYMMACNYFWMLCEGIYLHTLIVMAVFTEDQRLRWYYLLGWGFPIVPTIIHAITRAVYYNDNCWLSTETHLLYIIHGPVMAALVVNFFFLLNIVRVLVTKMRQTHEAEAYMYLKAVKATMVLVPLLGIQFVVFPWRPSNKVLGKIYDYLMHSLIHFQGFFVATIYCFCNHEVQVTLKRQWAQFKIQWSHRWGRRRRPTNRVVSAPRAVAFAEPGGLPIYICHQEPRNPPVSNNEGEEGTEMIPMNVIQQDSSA
T1 sequence (Q9JJ73 23-147 partner): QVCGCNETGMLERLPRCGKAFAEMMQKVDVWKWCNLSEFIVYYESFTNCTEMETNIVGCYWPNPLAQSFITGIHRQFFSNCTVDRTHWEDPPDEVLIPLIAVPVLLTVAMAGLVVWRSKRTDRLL
In short: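 Binding to the rat amylin receptor was determined with membrane preparations. The receptor was expressed by transiently transfecting BHK tk′ts 13 cells with rat calcitonin receptor, using FuGENE® 6 (Roche) according to the manufacturer's recommendations. Roughly 48 hours later the cells were harvested and their membranes isolated.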

rat calcitonin receptor = biological target: T2, rat calcitonin receptor (Rattus norvegicus, UniProt P32214); assay: ASSAY (VIII) binding to the rat calcitonin receptor; settings: Table 7, read-out: rCTR bind IC50
T2 construct: expressed in transfected cells; host or cells: BHK tk'ts 13 (transient, FuGENE 6), membranes
T2 sequence (P32214 25-479 isoform P32214-2 limits assumed): T1 sequence (P32214 25-479 isoform P32214-2 limits assumed)
In short: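 Transfect BHK tk′ts 13 cells transiently with rat calcitonin receptor, culture in DMEM containing 10% FBS, collect cells about 48 hours later, then prepare membranes.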

[2] = Table 7, rat binding selectivity, rCTR IC50 / rAmylin-R IC50
[3] = Table 7a (preferred compounds), rat binding selectivity, rCTR IC50 / rAmylin-R IC50
[4] = ratio of rCTR bind IC50 to rAmylin-R bind IC50

| IC50 ([1]; Table 7) | Ratio rCT/rAmylin binding [1, 2] | Ratio rCT/rAmylin binding [1, 3] | Ratio rCT/rAmylin binding [1, 4] | IC50 (rat calcitonin receptor) | Compound | Food intake reduction 0-24 h 30 nmol/kg (%) (Sprague Dawley (SD) rats; 0-24 h) | Food intake reduction 24-48 h 30 nmol/kg (%) (Sprague Dawley (SD) rats; 24-48 h) | Food intake reduction 0-24 h 3 nmol/kg (%) (Sprague Dawley (SD) rats; 3 nmol/kg, 0-24 h) | Food intake reduction 24-48 h 3 nmol/kg (%) (Sprague Dawley (SD) rats; 3 nmol/kg, 24-48 h) |
| --- | --- | --- | --- | --- | --- | --- | --- | --- | --- |
| 0.339 nM | 112.9 | 112.9 | 112.9 | 38.3 nM | CC[C@H](C)[C@H](NC(=O)[C@H](C)NC(=O)CNC(=O)[C@H](Cc1ccccc1)NC(=O)[C@H](CC(N)=O)NC(=O)[C@@H]1CCCN1C(=O)[C@H](CO)NC(=O)[C@H](CO)NC(=O)[C@H](Cc1c[nH]cn1)NC(=O)[C@H](CCCNC(=N)N)NC(=O)[C@H](CC(C)C)NC(=O)[C@H](Cc1ccccc1)NC(=O)[C@H](CCC(=O)O)NC(=O)[C@H](C)NC(=O)[C@H](CC(C)C)NC(=O)[C@H](CCCNC(=N)N)NC(=O)[C@H](CCC(N)=O)NC(=O)[C@@H](NC(=O)[C@H](C)NC(=O)[C@@H]1CSSC[C@H](NC(=O)[C@@H](N)CCCCNC(=O)CC[C@H](NC(=O)CC[C@H](NC(=O)CCCCCCCCCCCCCCCCCCC(=O)O)C(=O)O)C(=O)O)C(=O)N[C@@H](CC(N)=O)C(=O)N[C@@H]([C@@H](C)O)C(=O)N[C@@H](C)C(=O)N[C@@H]([C@@H](C)O)C(=O)N1)[C@@H](C)O)C(=O)N1CCC[C@H]1C(=O)N[C@@H](CO)C(=O)N[C@@H](CO)C(=O)N[C@H](C(=O)N[C@@H](CC(N)=O)C(=O)N[C@H](C(=O)NCC(=O)N1CCC[C@H]1C(=O)N[C@@H](CCCNC(=N)N)C(=O)N[C@H](C(=O)N[C@@H](Cc1ccc(O)cc1)C(N)=O)[C@@H](C)O)C(C)C)[C@@H](C)O [Example 110] (H-K([γGlu-γGlu-C20 diacid])CNTATCATQRLAEFLRHSSPNFGAIPSSTNVGPRTY-NH2; disulfide 2-7) | 68% | 31% | – | – |
| 1.24 nM | 326.8 | 326.8 | 326.8 | 404 nM | CC[C@H](C)[C@H](NC(=O)[C@H](C)NC(=O)CNC(=O)[C@H](Cc1ccccc1)NC(=O)[C@H](CC(N)=O)NC(=O)[C@@H]1CCCN1C(=O)[C@H](CO)NC(=O)[C@H](CO)NC(=O)[C@H](Cc1c[nH]cn1)NC(=O)[C@H](CCCNC(=N)N)NC(=O)[C@H](CC(C)C)NC(=O)[C@H](Cc1ccccc1)NC(=O)[C@H](CC(N)=O)NC(=O)[C@H](C)NC(=O)[C@H](CC(C)C)NC(=O)[C@H](CCCNC(=N)N)NC(=O)[C@H](CCC(N)=O)NC(=O)[C@@H](NC(=O)[C@H](C)NC(=O)[C@@H]1CSSC[C@H](NC(=O)[C@@H](N)CCCCNC(=O)CC[C@H](NC(=O)CCCCCCCCCCCCCCC(=O)O)C(=O)O)C(=O)N[C@@H](CC(N)=O)C(=O)N[C@@H]([C@@H](C)O)C(=O)N[C@@H](C)C(=O)N[C@@H]([C@@H](C)O)C(=O)N1)[C@@H](C)O)C(=O)N1CCC[C@H]1C(=O)N[C@@H](CO)C(=O)N[C@@H](CO)C(=O)N[C@H](C(=O)N[C@@H](CC(N)=O)C(=O)N[C@H](C(=O)NCC(=O)N[C@@H](Cc1c[nH]cn1)C(=O)N[C@@H](CC(N)=O)C(=O)N[C@H](C(=O)N[C@@H](Cc1ccc(O)cc1)C(N)=O)[C@@H](C)O)C(C)C)[C@@H](C)O [Example 111] | 17% | 0% | – | – |
| 1.17 nM | 40.3 | 40.3 | 40.3 | 47 nM | CC[C@H](C)[C@H](NC(=O)[C@H](C)NC(=O)CNC(=O)[C@H](Cc1ccccc1)NC(=O)[C@H](CC(N)=O)NC(=O)[C@@H]1CCCN1C(=O)[C@H](CO)NC(=O)[C@H](CO)NC(=O)[C@H](Cc1c[nH]cn1)NC(=O)[C@H](CCCNC(=N)N)NC(=O)[C@H](CC(C)C)NC(=O)[C@H](Cc1ccccc1)NC(=O)[C@H](CC(N)=O)NC(=O)[C@H](C)NC(=O)[C@H](CC(C)C)NC(=O)[C@H](CCCNC(=N)N)NC(=O)[C@H](CCC(N)=O)NC(=O)[C@@H](NC(=O)[C@H](C)NC(=O)[C@@H]1CSSC[C@H](NC(=O)[C@@H](N)CCCCNC(=O)CC[C@H](NC(=O)CCCCCCCCCCCCCCCCC(=O)O)C(=O)O)C(=O)N[C@@H](CC(N)=O)C(=O)N[C@@H]([C@@H](C)O)C(=O)N[C@@H](C)C(=O)N[C@@H]([C@@H](C)O)C(=O)N1)[C@@H](C)O)C(=O)N1CCC[C@H]1C(=O)N[C@@H](CO)C(=O)N[C@@H](CO)C(=O)N[C@H](C(=O)N[C@@H](CC(N)=O)C(=O)N[C@H](C(=O)NCC(=O)N[C@@H](Cc1c[nH]cn1)C(=O)N[C@@H](CC(N)=O)C(=O)N[C@H](C(=O)N[C@@H](Cc1ccc(O)cc1)C(N)=O)[C@@H](C)O)C(C)C)[C@@H](C)O [Example 113] | 48% | 2% | – | – |
| 0.339 nM | 45.5 | 45.5 | 45.5 | 15.4 nM | CC[C@H](C)[C@H](NC(=O)[C@H](C)NC(=O)CNC(=O)[C@H](Cc1ccccc1)NC(=O)[C@H](CC(N)=O)NC(=O)[C@@H]1CCCN1C(=O)[C@H](CO)NC(=O)[C@H](CO)NC(=O)[C@H](Cc1c[nH]cn1)NC(=O)[C@H](CCCNC(=N)N)NC(=O)[C@H](CC(C)C)NC(=O)[C@H](Cc1ccccc1)NC(=O)[C@H](CCC(=O)O)NC(=O)[C@H](C)NC(=O)[C@H](CC(C)C)NC(=O)[C@H](CCCNC(=N)N)NC(=O)[C@H](CCC(N)=O)NC(=O)[C@@H](NC(=O)[C@H](C)NC(=O)[C@@H]1CSSC[C@H](NC(=O)[C@@H](N)CCCCNC(=O)CC[C@H](NC(=O)CCCCCCCCCCCCCCCCCCC(=O)O)C(=O)O)C(=O)N[C@@H](CC(N)=O)C(=O)N[C@@H]([C@@H](C)O)C(=O)N[C@@H](C)C(=O)N[C@@H]([C@@H](C)O)C(=O)N1)[C@@H](C)O)C(=O)N1CCC[C@H]1C(=O)N[C@@H](CO)C(=O)N[C@@H](CO)C(=O)N[C@H](C(=O)N[C@@H](CC(N)=O)C(=O)N[C@H](C(=O)NCC(=O)N1CCC[C@H]1C(=O)N[C@@H](CCCNC(=N)N)C(=O)N[C@H](C(=O)N[C@@H](Cc1ccc(O)cc1)C(N)=O)[C@@H](C)O)C(C)C)[C@@H](C)O [Example 117] (H-K([γGlu-C20 diacid])CNTATCATQRLAEFLRHSSPNFGAIPSSTNVGPRTY-NH2; disulfide 2-7; N-terminus assumed) | 61% | 4% | – | – |
| 0.104 nM | 52.2 | 52.2 | 52.2 | 5.43 nM | CC[C@H](C)[C@H](NC(=O)[C@H](C)NC(=O)CNC(=O)[C@H](Cc1ccccc1)NC(=O)[C@H](CC(N)=O)NC(=O)[C@@H]1CCCN1C(=O)[C@H](CO)NC(=O)[C@H](CO)NC(=O)[C@H](Cc1c[nH]cn1)NC(=O)[C@H](CCCNC(=N)N)NC(=O)[C@H](CC(C)C)NC(=O)[C@H](Cc1ccccc1)NC(=O)[C@H](CCC(=O)O)NC(=O)[C@H](C)NC(=O)[C@H](CC(C)C)NC(=O)[C@H](CCCNC(=N)N)NC(=O)[C@H](CCC(N)=O)NC(=O)[C@@H](NC(=O)[C@H](C)NC(=O)[C@@H]1CSSC[C@H](NC(=O)[C@@H](N)CCCCNC(=O)CC[C@H](NC(=O)CCCCCCCCCCCCCCCCCCC(=O)O)C(=O)O)C(=O)N[C@@H](CC(N)=O)C(=O)N[C@@H]([C@@H](C)O)C(=O)N[C@@H](C)C(=O)N[C@@H]([C@@H](C)O)C(=O)N1)[C@@H](C)O)C(=O)N1CCC[C@H]1C(=O)N[C@@H](CO)C(=O)N[C@@H](CO)C(=O)N[C@H](C(=O)N[C@@H](CC(N)=O)C(=O)N[C@H](C(=O)NCC(=O)N1CCC[C@H]1C(=O)N[C@@H](Cc1c[nH]cn1)C(=O)N[C@H](C(=O)N[C@@H](Cc1ccc(O)cc1)C(N)=O)[C@@H](C)O)C(C)C)[C@@H](C)O [Example 118] (H-K([γGlu-C20 diacid])CNTATCATQRLAEFLRHSSPNFGAIPSSTNVGPHTY-NH2; disulfide 2-7) | 77% | 30% | 43% | 1% |
